Results as given in patent US20120258975A1, “Potent Small Molecule Inhibitors of Autophagy, and Methods of Use Thereof” (Shanghai Institute of Organic Chemistry, priority 2009, published 2012).

Key:
Vps34 complexes = assay: Levels of endogenous Beclin1, Vps34, Atg14L in H4 and 293T cells (western blot); details: H4 cells and 293T cells; 10 μM; 3-MA 10 mM
Description: Twenty-four hours after the transfection, the cells were treated with indicated compounds for 12 h. The cell lysates were analyzed by western blotting using anti-HA, anti-flag or anti-tubulin. […] The cell lysates were harvested and analyzed by western blotting using: anti-Beclin1, anti-Atg14, anti-Vps34 and anti-UVRAG. Anti-α-tubulin was used as loading controls. […] The cell lysates were harvested and analyzed by western blotting using: anti-Beclin1 and anti-LC3. Anti-α-tubulin was used as loading controls.

bax/bak DKO MEF cells = assay: Etoposide induced cell death of bax/bak DKO cells; assay type: cell-based, mouse; details: etoposide 8 μM; MBCQ 10 μM, spautin 10 μM, 3-MA 10 mM; 8 h
Description: C, cells were collected for western blotting using anti-LC3 antibody. α-tubulin was used as a control. D-F, Bax/bak DKO cells were treated with spautin (10 μM) or indicated concentration, in the presence of or absent etoposide (8 μM) for 8 h or indicated time. […] F, Cells were collected for western blotting using anti-LC3 antibody. α-tubulin was used as a control.
Autophagy has been proposed to contribute to cell death in a number of apoptotic deficient cell types. For example, bax/bak double deficient mouse embryonic fibroblast cells (DKO mefs) are highly resistant to apoptosis (Wei, M. C., Zong, W. X., Cheng, E. H., Lindsten, T., Panoutsakopoulou, V., Ross, A. J., Roth, K. A., MacGregor, G. R., Thompson, C. B., and Korsmeyer, S. J. (2001). Proapoptotic BAX and BAK: a requisite gateway to mitochondrial dysfunction and death. Science 292, 727-730).

[1] = test system: LC3-GFP (H4-LC3-GFP cells); assay: Starvation induced autophagy in H4-LC3-GFP cells; assay type: cell-based; details: Hanks buffer 1 h; MBCQ 5 μM, 3-MA 10 mM, wortmannin 0.1 μM
Excerpt: FIG. 2 depicts results relating to MBCQ inhibition of autophagy induced by starvation. Quantitative measurement of LC3-GFP spot number per cell (a), spot size per cell (b) and spot intensity per cell (c) using HCS and expressed as % of control.

LC3-GFP (H4-LC3 cells) = assay: LC3-GFP image-based autophagy assay in H4-LC3 cells; assay type: cell-based; details: with rapamycin; MY-5445 30 μM, dipyridamole 80 μM, IBMX 100 μM, sildenafil 10 μM
Description: FIG. 1 relates to identification of a small molecule inhibitor of autophagy by an image-based screen. A, structure of MBCQ. B, Quantitative analysis of LC3-GFP spot number per cell (a), spot size per cell (b), spot intensity per cell (c). The data are expressed as % of control vehicle treated cells. H4-LC3 cells were seeded in 96 well-plates and incubated with vehicle control (1% DMSO), 0.2 μM rapamycin with or without 10 μM MBCQ for indicated time, fixed with 4% paraformaldehyde and stained with 4,6-diamidino-2-phenylindole (DAPI, 3 μg/ml). Images of 1000 cells for each compound treatment were analyzed by ArrayScan HCS 4.0 Reader with a 20× objective (Cellomics, Pittsburgh, Pa.).
(§1) FIG. 14 depicts MBCQ derivatives that can inhibit autophagy. To calculate EC50, H4-LC3 cells were seeded in 96 well-plates and cultured in the presence of compounds in different concentration for 24 h, and then fixed with polyformate and stained with 4,6-diamidino-2-phenylindole (DAPI, 3 μg/ml). Images data were collected with an ArrayScan HCS 4.0 Reader with a 20× objective (Cellomics, Pittsburgh, Pa.) for DAPI labeled nuclei and GFP-LC3, a marker for autophagy. The Spot Detector Bio-Application was used to acquire and analyze the images after optimization. Images of 1000 cells for each compound treatment were analyzed to obtain average cell number per field, fluorescence spot number, area and intensity per cell. DMSO and rapamycin were used as negative or positive control, respectively. The percentages of changes of LC3-GFP were calculated by dividing with that of DMSO treated samples. Each treatment was done in triplicate for mean and SD. The images were also analyzed using a conventional fluorescence microscope for visual inspection. The experiments were repeated three times
as §1, with “15” for “14”, “with reduced or no ability to” for “that can”, “times.” for “times”
To explore the mechanism of autophagy and identify additional small molecules that can activate it, a high-throughput image-based screen for autophagy regulators was developed. This system takes advantage of the localization of light chain 3 coupled to GFP (LC3-GFP) to autophagosomal membrane upon induction of autophagy (Zhang, L., Yu, J., Pan, H., Hu, P., Hao, Y., Cai, W., Zhu, H., Yu, A. D., Xie, X., Ma, D., et al. (2007). Small molecule regulators of autophagy identified by an image-based high-throughput screen. Proc Natl Acad Sci USA 104, 19023-19028). […] Compounds that increase cellular levels of LC3-GFP, however, are not necessarily able to increase degradative activity of autophagy. Instead, the increases of LC3-GFP may be associated with cell death or may be a result of lysosomal defect and thus associated with blockage of autophagy. […]

PDE5 = PDE5 (Homo sapiens, UniProt O76074); assay: Determination of % inhibition of PDE5 activity; assay type: biochemical; details: for inhibition at 0.2 µM: Concentration = 0.2 μM; for inhibition at 2 µM: Concentration = 2 μM; for inhibition at 20 µM: Concentration = 20 μM

Compound | activity on autophagy (LC3-GFP (H4-LC3 cells)) | inhibition at 0.2 µM (PDE5) | inhibition at 2 µM (PDE5) | inhibition at 20 µM (PDE5) | also measured
Cn1cnc(N)c2ncnc1-2 [3-MA, 3-methyladenine] | – | – | – | – | levels of endogenous Beclin1, Vps34 and Atg14L (Vps34 complexes): no effect on endogenous Beclin1; cell death induced by etoposide (bax/bak DKO MEF cells): inhibits etoposide induced death; starvation induced autophagy (LC3-GFP spot number, size, intensity) [1]: inhibited
CC(C)Cn1c(=O)n(C)c(=O)c2[nH]cnc21 [IBMX] | None of the PDE5 inhibitors tested | – | – | – | –
Clc1cccc(Nc2nnc(-c3ccccc3)c3ccccc23)c1 [MY-5445] | None of the PDE5 inhibitors tested | – | – | – | –
CCCc1nn(C)c2c(=O)[nH]c(-c3cc(S(=O)(=O)N4CCN(C)CC4)ccc3OCC)nc12 [Sildenafil] | None of the PDE5 inhibitors tested | 96.5% | 98.8% | 102% | –
CCCOc1ccccc1-c1nc2nn[nH]c2c(=O)[nH]1 [Zaprinast] | – | 38% | 88.4% | 102% | –
OCCN(CCO)c1nc(N2CCCCC2)c2nc(N(CCO)CCO)nc(N3CCCCC3)c2n1 [dipyridamole] | None of the PDE5 inhibitors tested | – | – | – | –
